Data from patent publication US20220280594A1, “APPLICATION OF POLYPEPTIDE OR DERIVATIVE THEREOF” (CHENGDU HUITAI BIOMEDICINE CO., LTD., priority 2019, published 2022).
Ends that are not written are not given here. PEG = not defined here

Legend:
Format in all cases: cell-based
[1] = tested on: human pancreatic cancer cells (PANC-1); test: scratch assay, migration of PANC-1 cells; conditions: PANC-1, 10 μM, 48 hours; control group 66.65 ± 3.37
Description: (§1) In the scratch assay, the cell migration rate was negatively correlated with the inhibitory effect of the drug component on tumor cell migration ability. The cell migration inhibition experiment was described as follows: tumor cells were cultured in vitro, cells in logarithmic growth phase were collected and seeded evenly in a 24-well plate at a density of 1-2×10^5 cells/well; the cells were cultured in a cell incubator until a monolayer was formed; a scratch tool was used to make a “-” (straight) scratch on the monolayer of cells; the cells were washed 1-3 times with PBS, and a medium (with 2% fetal bovine serum) containing specific test components was added to the culture. Experimental grouping: PBS control group; polypeptide or derivative thereof treatment group (N1-N54), 10 μM. Three independent parallel wells were set up in each group, and the cells were cultured continuously in a cell incubator for 48 hours. […] At least 3 representative images for each well were taken. ImageJ software was used to count the migration distance of the cells, and the cell migration rate was calculated as: cell migration rate (%)=(width of original scratch−width of current scratch)/width of original scratch×100.
This example was a scratch assay to evaluate the inhibitory effect of the polypeptide or derivative thereof (N1-N54) on the migration ability of human pancreatic cancer cells (PANC-1). The experimental method was as described in Example 2.

[2] = tested on: human liver adenocarcinoma cells (SK-HEP-1); test: transwell migration assay, SK-HEP-1 cells; conditions: SK-HEP-1 transwell migration, 10 μM, 24 hours; control group 1 782 ± 108, control group 2 768 ± 86
Description: (§2) The Transwell chamber system was used in the transwell cell migration experiment. The chamber has an upper layer and a lower layer, which are separated by an artificial semipermeable membrane in the middle. Cells that have migrated through the semi-permeable membrane will attach to the lower surface of the semi-permeable membrane. The migration ability is evaluated by counting the number of cells on the lower surface of the semi-permeable membrane. The number of cells that have migrated is negatively correlated with the inhibitory effect of the drug on the migration ability of the tumor cells. Transwell migration assay was performed as follows: tumor cells were cultured in vitro, cells in logarithmic growth phase were collected, and cell suspension was prepared with fresh serum-free medium at a density of 2-3×10^5 cells/mL. Cells were inoculated, 100 μL/well cell suspension (serum-free medium) in the upper chamber and 600 μL/well complete culture medium in the lower chamber. After incubated in 37° C., 5% CO2 incubator for 4-5 hours, serum-free medium (100 μL/well) was added to the control group, and serum-free medium containing polypeptide or derivative thereof (N1-N54) was added to the upper chamber of the treatment group (100 μL/well), the final concentration of the peptide or derivative thereof in the upper chamber was 10 μM. The cells were incubated continuously for 24 hours, and then fixed with methanol and stained with crystal violet. Images were taken under a microscope and the number of migrated cells was counted with ImageJ.
This example was a transwell cell migration experiment to evaluate the inhibitory effect of the polypeptide or derivative thereof (N1-N54) on the migration ability of human liver adenocarcinoma cells (SK-HEP-1). The experimental method was as described in Example 3.

[3] = tested on: human oral epidermoid carcinoma KB cells; test: scratch assay, migration of KB cells; conditions: 10 μM, 48 hours, control group 54.03 ± 4.21
Description: as §1
This example was a scratch assay to evaluate the inhibitory effect of the polypeptide or derivative thereof (N1-N54) on the migration ability of human oral epidermoid carcinoma cells (KB). The experimental method was as described in Example 2.

[4] = tested on: human thyroid cancer cells (FRO); test: scratch assay, migration of FRO cells; conditions: 10 μM, 48 hours, control group 60.34 ± 8.32
Description: as §1
This example was a scratch assay to evaluate the inhibitory effect of the polypeptide or derivative thereof (N1-N54) on the migration ability of human thyroid cancer cells (FRO). The experimental method was as described in Example 2.

[5] = tested on: human pancreatic cancer cells (PANC-1); test: transwell invasion assay, PANC-1 cells; conditions: PANC-1 transwell invasion, 10 μM, 24 hours; control group 727 ± 68
Description: (§3) The Transwell chamber system was used in the transwell cell invasion experiment. The chamber has an upper layer and a lower layer, which are separated by an artificial semipermeable membrane in the middle. The upper surface of the semipermeable membrane is coated with a layer of artificial matrigel to simulate extracellular matrix. Cells that have invaded through the matrigel and semi-permeable membrane will attach to the lower surface of the semi-permeable membrane. The invasion ability is evaluated by counting the number of cells on the lower surface of the semi-permeable membrane. The number of cells that have invaded is negatively correlated with the inhibitory effect of the drug on the invasion ability of the tumor cells. Transwell invasion assay was performed as follows: tumor cells were cultured in vitro, cells in logarithmic growth phase were collected, and cell suspension was prepared with fresh serum-free medium at a density of 2-3×10^5 cells/mL. Cells were inoculated, 100 μL/well cell suspension (serum-free medium) in the upper chamber and 600 μL/well complete culture medium in the lower chamber. After incubated in 37° C., 5% CO2 incubator for 4-5 hours, serum-free medium (100 μL/well) was added to the control group, and serum-free medium containing polypeptide or derivative thereof (N1-N54) was added to the upper chamber of the treatment group (100 μL/well), the final concentration of the peptide or derivative thereof in the upper chamber was 10 μM. The cells were incubated continuously for 24 hours, and then fixed with methanol and stained with crystal violet. Images were taken under a microscope and the number of invaded cells was counted with ImageJ.
This example was the transwell cell invasion experiment to evaluate the inhibitory effect of the polypeptide or derivative thereof (N1-N54) on the invasion ability of human pancreatic cancer cells (PANC-1). The experimental method was as described in Example 4.

[6] = tested on: human breast cancer cells (MDA-MB-453); test: scratch assay, migration of MDA-MB-453 cells; conditions: MDA-MB-453, 10 μM, 48 hours; control group 32.42 ± 2.04
Description: as §1
This example was a scratch assay to evaluate the inhibitory effect of the polypeptide or derivative thereof (N1-N54) on the migration ability of human breast cancer cells (MDA-MB-453). The experimental method was as described in Example 2.

[7] = tested on: human pancreatic cancer cells (PANC-1); test: transwell migration assay, PANC-1 cells; conditions: PANC-1 transwell migration, 10 μM, 24 hours; control group 360 ± 60
Description: as §2
This example was a transwell cell migration experiment to evaluate the inhibitory effect of the polypeptide or derivative thereof (N1-N54) on the migration ability of human pancreatic cancer cells (PANC-1). The experimental method was as described in Example 3.

[8] = tested on: human liver adenocarcinoma cells (SK-HEP-1); test: transwell invasion assay, SK-HEP-1 cells; conditions: SK-HEP-1 transwell invasion, 10 μM, 24 hours; control group 767 ± 91
Description: as §3
This example was a transwell cell invasion experiment to evaluate the inhibitory effect of the polypeptide or derivative thereof (N1-N54) on the invasion ability of human liver adenocarcinoma cells (SK-HEP-1). The experimental method was as described in Example 4.

Substance | Migration rate (%) (mean ± SD, P) [1] | Number of cells (mean ± SD, P), migrated cells [2] | Migration rate (%) (mean ± SD, P) [3] | Migration rate (%) (mean ± SD, P) [4] | Number of cells (mean ± SD, P), invaded cells [5] | Migration rate (%) (mean ± SD, P) [6] | Number of cells (mean ± SD, P), migrated cells [7] | Number of cells (mean ± SD, P), invaded cells [8]
N2: SEQ ID NO: 1 with deletion of one amino acid (position 18) at the carboxyl terminal (YRVRFLAKENVTQDAED) | 32.74 ± 4.26,** % | 104 ± 10,**** | 6.82 ± 3.25,*** % | 22.88 ± 5.43,** % | 93 ± 19,**** | 12.96 ± 3.13,** % | 221 ± 35,** | 432 ± 47,**
N40: SEQ ID NO: 1 with deletion of positions 1-5 and 15-18, PEG at the amino terminal, two amino acids added at the carboxyl terminal ({PEG}-LAKENVTQDRC; reading uncertain) | 13.24 ± 8.56,*** % | 290 ± 33,**** | 6.47 ± 4.39,*** % | 39.96 ± 4.95,* % | 273 ± 21,**** | 13.88 ± 6.51,** % | 264 ± 12,* | 123 ± 26,****
N32: SEQ ID NO: 1 with deletion of positions 1-3, addition of one amino acid and PEG modification at the carboxyl terminal (RFLAKENVTQDAEDNC-{PEG}; reading uncertain) | 15.49 ± 8.35,*** % | 201 ± 13,**** | 11.70 ± 2.95,*** % | 7.83 ± 2.06,*** % | 251 ± 10,**** | 17.55 ± 3.48,** % | 219 ± 13,*** | 252 ± 7,****
N33: SEQ ID NO: 1 with deletion of positions 1-5, addition of one amino acid and PEG modification at the carboxyl terminal (LAKENVTQDAEDNC-{PEG}; reading uncertain) | 39.27 ± 3.14,* % | 354 ± 31,*** | 6.01 ± 1.62,*** % | 7.03 ± 2.02,*** % | 345 ± 27,*** | 10.76 ± 4.13,*** % | 178 ± 14,*** | 197 ± 32,****
N48: SEQ ID NO: 1 with A7R, deletion of position 11 and position 18, PEG modification at the carboxyl terminal (YRVRFLRKENTQDAED-{PEG}; reading uncertain) | 20.60 ± 4.71,*** % | 374 ± 22,*** | 9.09 ± 4.23,*** % | 13.78 ± 2.61,*** % | 149 ± 12,**** | 12.62 ± 3.25,** % | 152 ± 18,*** | 109 ± 10,****
N9: SEQ ID NO: 1 with deletion of positions 15-18 and PEG modification at the amino terminal ({PEG}-YRVRFLAKENVTQD; reading uncertain) | 29.12 ± 5.84,*** % | 174 ± 15,**** | 9.27 ± 2.63,*** % | 20.51 ± 5.04,** % | 93 ± 6,**** | 7.19 ± 2.38,*** % | 148 ± 16,*** | 288 ± 35,***
